Measured values taken from US10435361B2, “Kinase inhibitors” (Topivert Pharma Limited, priority 2013, dated 2019).

Columns and labels:
Type in all cases: cell-based
PBMCs [1] = assay: LPS-induced TNFα/IL-8 release in PBMC cells; settings: Homo sapiens, assay (b), read-out: IC50 Values for Inhibition of Cytokine Release PBMCs IL-8
Description: Peripheral blood mononuclear cells (PBMCs) from healthy subjects are separated from whole blood using a density gradient (Lymphoprep, Axis-Shield Healthcare). The PBMCs are seeded in 96 well plates and treated with compounds at the desired concentration for 2 hours before addition of 1 ng/mL LPS (Escherichia Coli 0111:B4 from Sigma Aldrich) for 24 hours under normal tissue culture conditions (37° C., 5% CO2). The supernatant is harvested for determination of IL-8 and TNFα concentrations by sandwich ELISA (Duo-set, R&D systems) and read on the fluorescence microplate reader (Varioskan® Flash, ThermoFisher Scientific).

PBMCs [2] = assay: IL-2 and IFN gamma release in CD3/CD28 stimulated PBMC cells; settings: Homo sapiens, assay (c)
Description: PBMCs from healthy subjects are separated from whole blood using a density gradient (Lymphoprep, Axis-Shield Healthcare). Cells are added to a 96 well plate pre-coated with a mixture of CD3/CD28 monoclonal antibodies (0.3 μg/mL eBioscience and 3 μg/mL BD Pharmingen respectively). Compound at the desired concentration is then added to the wells and the plate left for 3 days under normal tissue culture conditions. […] The IC50 is determined from the dose response curve.

PBMCs [3] = assay: Cell mitosis assay in PBMCs; settings: Homo sapiens, PBMC, 5 μg/mL
Description: Peripheral blood mononucleocytes (PBMCs) from healthy subjects are separated from whole blood (Quintiles, London, UK) using a density gradient (Histopaque®-1077, Sigma-Aldrich, Poole, UK). The PBMCs (3 million cells per sample) are subsequently treated with 2% PHA (phytohaemagglutinin, Sigma-Aldrich, Poole, UK) for 48 hr, followed by a 20 hr exposure to varying concentrations of test compounds. At 2 hr before collection, PBMCs are treated with demecolcine (0.1 μg/mL; Invitrogen, Paisley, UK) to arrest cells in metaphase. To observe mitotic cells, PBMCs are permeabilised and fixed by adding Intraprep (50 μL; Beckman Coulter, France), and stained with anti-phospho-histone 3 (0.26 ng/L; #9701; Cell Signalling, Danvers, Mass.) and propidium iodide (1 mg/mL; Sigma-Aldrich, Poole, UK) as previously described (Muehlbauer P. A. and Schuler M. J., Mutation Research, 2003, 537:117-130). Fluorescence is observed using an ATTUNE flow cytometer (Invitrogen, Paisley, UK), gating for lymphocytes.

[4] = read-out: IC50 Values for Inhibition of Cytokine Release PBMCs IL-2
[5] = read-out: IC50 Values for Inhibition of Cytokine Release PBMCs IFNγ

Structure (SMILES) | IC50 (PBMCs [1]) | IC50 (PBMCs [2]; [4]) | inhibition at 5 µg/mL (PBMCs [3]) | IC50 (PBMCs [2]; [5])
COCCOCCOCCOc1cc(Nc2nccc(Oc3ccc(NC(=O)Nc4cc(C(C)(C)C)cc(NS(=O)(=O)N5CCOCC5)c4OC)c4ccccc34)n2)cc(OC)c1 [83(b), N-(5-(tert-butyl)-2-methoxy-3-(3-(4-((2-((3-methoxy-5-(2-(2-(2-methoxyethoxy)ethoxy)-ethoxy)phenyl)amino)pyrimidin-4-yl)oxy)naphthalen-1-yl)ureido)phenyl)morpholine-4-sulfonamide] | 3.7 nM | 109 nM | – | –
COc1cc(Nc2nccc(Oc3ccc(NC(=O)Nc4cc(C(C)(C)C)cc(NS(C)(=O)=O)c4OC)c4ccccc34)n2)cc(OCCOCCOCCO)c1 [83(c), N-(5-(tert-butyl)-3-(3-(4-((2-((3-(2-(2-(2-hydroxyethoxy)ethoxy)ethoxy)-5-methoxyphenyl)-amino)pyrimidin-4-yl)oxy)naphthalen-1-yl)ureido)-2-methoxyphenyl)methanesulfonamide] | 1.8 nM | – | 57.1% | –
COc1cc(CO)cc(Nc2cc(Oc3ccc(NC(=O)Nc4cc(C(C)(C)C)cc(C(N)=O)c4OC)c4ccccc34)ccn2)c1 [84(g), 5-tert-Butyl-3-[[4-[[2-[3-(hydroxymethyl)-5-methoxyanilino]-4-pyridyl]oxy]-1-naphthyl]carbamoylamino]-2-methoxybenzamide] | 0.7 nM | 43.5 nM | 84.6% | 1.3 nM
CNC(=O)c1cc(C(C)(C)C)cc(NC(=O)Nc2ccc(Oc3ccnc(Nc4cc(CO)cc(OC)c4)c3)c3ccccc23)c1OC [84(h), 5-tert-Butyl-3-[[4-[[2-[3-(hydroxymethyl)-5-methoxyanilino]-4-pyridyl]oxy]-1-naphthyl]carbamoylamino]-2-methoxy-N-methyl-benzamide] | 0.7 nM | 51.3 nM | 87% | 1.7 nM
COc1cc(Nc2cc(Oc3ccc(NC(=O)Nc4cc(C(C)(C)C)cc(NS(C)(=O)=O)c4OC)c4ccccc34)ccn2)cc(C(=O)NCCN2CCOC(C)(C)C2)c1 [85(m), 3-[[4-[[4-[[5-tert-Butyl-3-(methanesulfonamido)-2-methoxyphenyl]-carbamoylamino]-1-naphthyl]oxy]-2-pyridyl]amino]-N-[2-(2,2-dimethylmorpholin-4-yl)ethyl]-5-methoxybenzamide] | 1.8 nM | – | 26.4% | –
COc1cc(Nc2cc(Oc3ccc(NC(=O)Nc4cc(C(C)(C)C)cc(NS(C)(=O)=O)c4OC)c4ccccc34)ccn2)cc(C(=O)NCCN2C[C@@H](C)O[C@@H](C)C2)c1 [85(n), 3-[[4-[[4-[[5-tert-Butyl-3-(methanesulfonamido)-2-methoxyphenyl]-carbamoylamino]-1-naphthyl]oxy]-2-pyridyl]amino]-N-[2-[(2R,6S)-2,6-dimethylmorpholin-4-yl]ethyl]-5-methoxybenzamide] | 1.9 nM | – | 26.6% | –
COCCOCCNC(=O)c1cc(Nc2cc(Oc3ccc(NC(=O)Nc4cc(C(C)(C)C)cc(NS(C)(=O)=O)c4OC)c4ccccc34)ccn2)cc(OC)c1 [85(u), 3-[[4-[[4-[[5-tert-Butyl-3-(methanesulfonamido)-2-methoxyphenyl]-carbamoylamino]-1-naphthyl]oxy]-2-pyridyl]amino]-5-methoxy-N-[2-(2-methoxyethoxy)-ethyl]benzamide] | 1.4 nM | – | 38.4% | –
COc1cc(Nc2nccc(Oc3ccc(NC(=O)Nc4cc(C(C)(C)C)cc(NS(C)(=O)=O)c4OC)c4ccccc34)n2)cc(OCCOCCOCCN(C)C)c1 [Example 15, N-(5-(tert-Butyl)-3-(3-(4-((2-((3-(2-(2-(2-(dimethylamino)ethoxy)ethoxy)ethoxy)-5-methoxyphenyl)amino)pyrimidin-4-yl)oxy)naphthalen-1-yl)ureido)-2-methoxyphenyl)-methanesulfonamide] | 0.9 nM | – | 97.5% | –
COc1cc(Nc2nccc(Oc3ccc(NC(=O)Nc4cc(C(C)(C)C)cc(NS(C)(=O)=O)c4OC)c4ccccc34)n2)cc(OCCOCCOCCN2CCOCC2)c1 [Example 18, N-(5-(tert-Butyl)-2-methoxy-3-(3-(4-((2-((3-methoxy-5-(2-(2-(2-morpholinoethoxy)ethoxy)-ethoxy)phenyl)amino)pyrimidin-4-yl)oxy)naphthalen-1-yl)ureido)phenyl)methanesulfonamide] | 1 nM | – | 92.7% | –
COCCOCCOCCOc1cc(Nc2nccc(Oc3ccc(NC(=O)Nc4cc(C(C)(C)C)cc(C(=O)NCC(=O)OC)c4OC)c4ccccc34)n2)cc(OC)c1 [Example 37, Methyl 2-(5-(tert-butyl)-2-methoxy-3-(3-(4-((2-((3-methoxy-5-(2-(2-(2-methoxyethoxy)-ethoxy)ethoxy)phenyl)amino)pyrimidin-4-yl)oxy)naphthalen-1-yl)ureido)benzamido)-acetate] | 2.2 nM | – | 45.9% | –
C#Cc1cc(Nc2cc(Oc3ccc(NC(=O)Nc4cc(C(N)=O)cc(C(C)(C)C)c4)c4ccccc34)ccn2)cc(C(=O)NCCOCCOCCOC)c1 [Example 62, 3-((4-((4-(3-(3-(tert-Butyl)-5-carbamoylphenyl)ureido)naphthalen-1-yl)oxy)pyridin-2-yl)amino)-5-ethynyl-N-(2-(2-(2-methoxyethoxy)ethoxy)ethyl)benzamide] | 4.6 nM | 48.7 nM | – | 32.2 nM
C#Cc1cc(Nc2cc(Oc3ccc(NC(=O)Nc4cc(C(C)(C)C)cc(NS(C)(=O)=O)c4OC)c4ccccc34)ccn2)cc(C(=O)N[C@H](C)COCCOCCOC)c1 [Example 68, (R)-3-((4-((4-(3-(5-(tert-Butyl)-2-methoxy-3-(methylsulfonamido)phenyl)ureido)-naphthalen-1-yl)oxy)pyridin-2-yl)amino)-5-ethynyl-N-(1-(2-(2-methoxyethoxy)ethoxy)-propan-2-yl)benzamide] | 2.8 nM | 220 nM | – | 68.8 nM
CCOc1c(NC(=O)Nc2ccc(Oc3ccnc(Nc4cc(OC)cc(OCCOCCOCCOC)c4)n3)c3ccccc23)cc(C(C)(C)C)cc1NS(C)(=O)=O [Example 69, N-(5-(tert-butyl)-2-ethoxy-3-(3-(4-((2-((3-methoxy-5-(2-(2-(2-methoxyethoxy)ethoxy)-ethoxy)phenyl)amino)pyrimidin-4-yl)oxy)naphthalen-1-yl)ureido)phenyl)methane-sulfonamide] | 1.6 nM | – | – | 2.2 nM
COCCOCCOCCOc1cc(Nc2cc(Oc3ccc(NC(=O)Nc4cc(C(C)(C)C)cc(C(=O)NCCN(C)C)c4OC)c4ccccc34)ccn2)cc(OC)c1 [Example 76, 5-(tert-Butyl)-N-(2-(dimethylamino)ethyl)-2-methoxy-3-(3-(4-((2-((3-methoxy-5-(2-(2-(2-methoxyethoxy)ethoxy)ethoxy)phenyl)amino)pyridin-4-yl)oxy)naphthalen-1-yl)ureido)-benzamide] | 1.9 nM | – | 91.3% | –
COCCOCCOCCOc1cc(Nc2cc(Oc3ccc(NC(=O)Nc4cc(C(C)(C)C)cc(C(=O)NC5COC5)c4OC)c4ccccc34)ccn2)cc(OC)c1 [Example 77, 5-(tert-Butyl)-2-methoxy-3-(3-(4-((2-((3-methoxy-5-(2-(2-(2-methoxyethoxy)ethoxy)ethoxy)-phenyl)amino)pyridin-4-yl)oxy)naphthalen-1-yl)ureido)-N-(oxetan-3-yl)benzamide] | 2 nM | – | – | –
COc1c(NC(=O)Nc2ccc(Oc3ccnc(Nc4ccccc4)n3)c3ccccc23)cc(C(C)(C)C)cc1C(=O)NC1COC1 [Example 78, 5-(tert-Butyl)-2-methoxy-N-(oxetan-3-yl)-3-(3-(4-((2-(phenylamino)pyrimidin-4-yl)oxy)-naphthalen-1-yl)ureido)benzamide] | 14 nM | – | – | –
COc1c(NC(=O)Nc2ccc(Oc3ccnc(Nc4ccccc4)c3)c(F)c2F)cc(C(C)(C)C)cc1C(=O)NC1COC1 [Example 82, 5-(tert-Butyl)-3-(3-(2,3-difluoro-4-((2-(phenylamino)pyridin-4-yl)oxy)phenyl)ureido)-2-methoxy-N-(oxetan-3-yl)benzamide] | 6.6 nM | – | – | –
COCCOCCOCCS(=O)(=O)c1cc(Nc2cc(Oc3ccc(NC(=O)Nc4cc(C(C)(C)C)cc(NS(C)(=O)=O)c4OC)c4ccccc34)ccn2)cc(OC)c1 [Example 85(y), 1-[5-tert-Butyl-3-(methanesulfonamido)-2-methoxyphenyl]-3-[4-[2-[3-methoxy-5-[2-[2-(2-methoxyethoxy)ethoxy]ethylsulfonyl]anilino]pyridin-4-yl]oxy-1-naphthyl]urea] | 1.7 nM | – | 20.1% | –
